# Results reported in PMC10004634 (PLOS ONE, 2023).
# Experiments:
# Test in all cases: biochemical
# Parameters in all cases: KINOMEscan scanMAX competition binding, DNA-tagged kinases, qPCR read-out, percent control at 300 nM
# NEK5 = NEK5 (Homo sapiens, UniProt Q6P3R8); conditions: read-out: Percent control / Acalabrutinib
# CDC2L2 = molecular target: T1, CDC2L2 (Homo sapiens, UniProt Q9UQ88); conditions: read-out: Percent control / Acalabrutinib
# T1 construct: gene CDK11A
# CSNK1A1 = CSNK1A1 (Homo sapiens, UniProt P48729); conditions: read-out: Percent control / Acalabrutinib
# CDK9 = CDK9 (Homo sapiens, UniProt P50750); conditions: read-out: Percent control / Acalabrutinib
# PKN2 = PKN2 (Homo sapiens, UniProt Q16513); conditions: read-out: Percent control / Acalabrutinib
# EPHA6 = EPHA6 (Homo sapiens, UniProt Q9UF33); conditions: read-out: Percent control / Acalabrutinib
# PYK2 = molecular target: T2, PYK2 (Homo sapiens, UniProt Q14289); conditions: read-out: Percent control / Acalabrutinib
# T2 construct: gene PTK2B
# MYO3B = MYO3B (Homo sapiens, UniProt Q8WXR4); conditions: read-out: Percent control / Ibrutinib
# MARK3 = MARK3 (Homo sapiens, UniProt P27448); conditions: read-out: Percent control / Ibrutinib
# CAMK2A = CAMK2A (Homo sapiens, UniProt Q9UQM7); conditions: read-out: Percent control / Ibrutinib
# EGFR(L747-T751del,Sins) = EGFR(L747-T751del,Sins) (Homo sapiens, UniProt P00533, DEL747-750/T751S); conditions: read-out: Percent control / Tirabrutinib
# MARK1 = MARK1 (Homo sapiens, UniProt Q9P0L2); conditions: read-out: Percent control / Tirabrutinib
# ZAP70 = ZAP70 (Homo sapiens, UniProt P43403); conditions: read-out: Percent control / Zanubrutinib
# MST1 = molecular target: T3, MST1 (Homo sapiens, UniProt Q13043); conditions: read-out: Percent control / Zanubrutinib
# T3 construct: gene STK4
# MYLK2 = MYLK2 (Homo sapiens, UniProt Q9H1R3); conditions: read-out: Percent control / Zanubrutinib
# TGFBR2 = TGFBR2 (Homo sapiens, UniProt P37173); conditions: read-out: Percent control / Zanubrutinib
# [1] = molecular target: T4, ABL1(M351T)-phosphorylated (Homo sapiens, UniProt P00519, M351T); conditions: read-out: Percent control / Zanubrutinib
# T4 construct: phosphorylated
# SIK = molecular target: T5, SIK (Homo sapiens, UniProt P57059); conditions: read-out: Percent control / Zanubrutinib
# T5 construct: gene SIK1
# CASK = CASK (Homo sapiens, UniProt O14936); conditions: read-out: Percent control / Zanubrutinib
# SNARK = molecular target: T6, SNARK (Homo sapiens, UniProt Q9H093); conditions: read-out: Percent control / Zanubrutinib
# T6 construct: gene NUAK2
# EPHA5 = EPHA5 (Homo sapiens, UniProt P54756); conditions: read-out: Percent control / Zanubrutinib
# PLK2 = PLK2 (Homo sapiens, UniProt Q9NYY3); conditions: read-out: Percent control / Zanubrutinib
# GRK1 = GRK1 (Homo sapiens, UniProt Q15835); conditions: read-out: Percent control / Zanubrutinib
# CAMK2A, sequence (Q9UQM7 whole entry, looked up): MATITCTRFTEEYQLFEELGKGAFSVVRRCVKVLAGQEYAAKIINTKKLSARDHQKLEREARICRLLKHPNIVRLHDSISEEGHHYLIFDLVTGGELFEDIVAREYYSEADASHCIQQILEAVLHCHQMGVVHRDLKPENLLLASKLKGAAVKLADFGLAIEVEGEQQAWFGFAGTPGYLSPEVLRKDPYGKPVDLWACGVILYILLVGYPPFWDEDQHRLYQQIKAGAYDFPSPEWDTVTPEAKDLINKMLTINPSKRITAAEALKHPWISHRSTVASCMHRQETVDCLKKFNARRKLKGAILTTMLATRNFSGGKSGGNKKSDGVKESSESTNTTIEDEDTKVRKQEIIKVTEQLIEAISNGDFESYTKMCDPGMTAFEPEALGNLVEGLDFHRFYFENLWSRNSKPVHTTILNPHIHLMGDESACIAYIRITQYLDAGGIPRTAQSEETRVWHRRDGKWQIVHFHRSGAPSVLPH
# MYO3B, sequence (Q8WXR4 whole entry): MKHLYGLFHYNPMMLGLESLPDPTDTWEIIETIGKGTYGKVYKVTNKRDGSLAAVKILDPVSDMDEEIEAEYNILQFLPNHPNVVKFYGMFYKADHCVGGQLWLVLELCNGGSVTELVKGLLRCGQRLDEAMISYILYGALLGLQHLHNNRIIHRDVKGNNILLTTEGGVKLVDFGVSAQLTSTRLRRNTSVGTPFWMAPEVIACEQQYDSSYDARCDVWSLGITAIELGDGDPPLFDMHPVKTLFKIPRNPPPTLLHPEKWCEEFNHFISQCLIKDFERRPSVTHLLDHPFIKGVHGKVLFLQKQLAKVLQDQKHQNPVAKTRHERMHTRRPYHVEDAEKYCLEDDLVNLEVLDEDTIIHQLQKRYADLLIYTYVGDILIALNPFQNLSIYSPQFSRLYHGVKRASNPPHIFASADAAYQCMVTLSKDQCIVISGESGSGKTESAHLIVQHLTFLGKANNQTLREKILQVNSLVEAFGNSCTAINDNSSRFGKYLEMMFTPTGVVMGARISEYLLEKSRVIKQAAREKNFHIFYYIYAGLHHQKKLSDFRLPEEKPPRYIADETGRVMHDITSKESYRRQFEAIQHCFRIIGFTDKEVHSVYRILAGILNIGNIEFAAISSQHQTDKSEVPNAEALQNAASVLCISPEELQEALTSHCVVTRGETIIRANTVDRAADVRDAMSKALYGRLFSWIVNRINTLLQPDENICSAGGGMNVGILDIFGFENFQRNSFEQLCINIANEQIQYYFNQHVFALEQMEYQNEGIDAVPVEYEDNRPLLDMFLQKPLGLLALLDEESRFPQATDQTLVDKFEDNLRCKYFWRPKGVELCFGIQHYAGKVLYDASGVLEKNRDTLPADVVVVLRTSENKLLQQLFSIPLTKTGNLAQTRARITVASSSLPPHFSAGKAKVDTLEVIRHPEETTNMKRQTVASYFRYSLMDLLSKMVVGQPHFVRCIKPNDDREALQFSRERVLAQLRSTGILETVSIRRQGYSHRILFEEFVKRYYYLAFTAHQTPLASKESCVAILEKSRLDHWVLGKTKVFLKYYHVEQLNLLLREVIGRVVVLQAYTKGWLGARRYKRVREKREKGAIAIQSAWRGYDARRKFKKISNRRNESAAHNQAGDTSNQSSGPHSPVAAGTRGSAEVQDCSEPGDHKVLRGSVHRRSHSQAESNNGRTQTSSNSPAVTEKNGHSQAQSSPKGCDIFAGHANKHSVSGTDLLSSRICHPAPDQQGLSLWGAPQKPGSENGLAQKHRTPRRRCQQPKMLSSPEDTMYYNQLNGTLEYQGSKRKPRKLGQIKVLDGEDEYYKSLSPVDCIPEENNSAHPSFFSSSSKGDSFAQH
# T3 sequence (Q13043 whole entry): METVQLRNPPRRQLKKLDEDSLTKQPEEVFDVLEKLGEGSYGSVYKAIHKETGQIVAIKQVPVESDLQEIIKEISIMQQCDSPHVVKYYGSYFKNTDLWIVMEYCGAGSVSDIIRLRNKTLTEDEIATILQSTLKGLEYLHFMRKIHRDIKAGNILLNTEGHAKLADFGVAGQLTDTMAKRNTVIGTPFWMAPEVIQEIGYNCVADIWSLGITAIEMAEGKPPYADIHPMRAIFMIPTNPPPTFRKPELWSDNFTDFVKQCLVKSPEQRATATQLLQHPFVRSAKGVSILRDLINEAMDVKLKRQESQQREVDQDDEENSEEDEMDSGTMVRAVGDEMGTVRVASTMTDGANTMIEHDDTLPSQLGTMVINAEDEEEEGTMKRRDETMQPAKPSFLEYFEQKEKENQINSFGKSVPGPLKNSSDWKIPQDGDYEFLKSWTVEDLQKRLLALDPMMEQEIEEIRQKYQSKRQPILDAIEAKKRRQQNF
# CASK, sequence (O14936 whole entry): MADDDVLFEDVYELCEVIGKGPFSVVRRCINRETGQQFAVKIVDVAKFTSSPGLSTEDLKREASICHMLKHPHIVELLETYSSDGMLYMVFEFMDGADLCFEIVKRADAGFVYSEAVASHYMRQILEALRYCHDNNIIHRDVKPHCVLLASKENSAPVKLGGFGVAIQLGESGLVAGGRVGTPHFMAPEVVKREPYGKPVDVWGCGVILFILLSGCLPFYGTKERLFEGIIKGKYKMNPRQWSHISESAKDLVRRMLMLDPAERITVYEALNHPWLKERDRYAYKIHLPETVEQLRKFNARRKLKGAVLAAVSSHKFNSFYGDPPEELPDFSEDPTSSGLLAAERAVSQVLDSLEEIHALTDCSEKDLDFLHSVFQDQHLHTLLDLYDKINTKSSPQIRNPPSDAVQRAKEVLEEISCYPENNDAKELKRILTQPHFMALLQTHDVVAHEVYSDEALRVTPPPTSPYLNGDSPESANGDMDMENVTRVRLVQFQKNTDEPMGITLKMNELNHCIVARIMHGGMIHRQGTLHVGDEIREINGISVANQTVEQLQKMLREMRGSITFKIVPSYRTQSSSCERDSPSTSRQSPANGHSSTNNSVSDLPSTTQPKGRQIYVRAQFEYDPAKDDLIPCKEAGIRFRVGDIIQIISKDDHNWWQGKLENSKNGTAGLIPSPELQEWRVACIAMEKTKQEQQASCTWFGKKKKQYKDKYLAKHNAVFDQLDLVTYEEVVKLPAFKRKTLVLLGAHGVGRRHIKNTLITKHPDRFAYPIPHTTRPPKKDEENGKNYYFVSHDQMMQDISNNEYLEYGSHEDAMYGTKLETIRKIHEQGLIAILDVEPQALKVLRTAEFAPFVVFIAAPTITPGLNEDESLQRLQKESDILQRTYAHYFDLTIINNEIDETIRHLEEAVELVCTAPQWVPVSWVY
# CDK9, sequence (P50750 whole entry): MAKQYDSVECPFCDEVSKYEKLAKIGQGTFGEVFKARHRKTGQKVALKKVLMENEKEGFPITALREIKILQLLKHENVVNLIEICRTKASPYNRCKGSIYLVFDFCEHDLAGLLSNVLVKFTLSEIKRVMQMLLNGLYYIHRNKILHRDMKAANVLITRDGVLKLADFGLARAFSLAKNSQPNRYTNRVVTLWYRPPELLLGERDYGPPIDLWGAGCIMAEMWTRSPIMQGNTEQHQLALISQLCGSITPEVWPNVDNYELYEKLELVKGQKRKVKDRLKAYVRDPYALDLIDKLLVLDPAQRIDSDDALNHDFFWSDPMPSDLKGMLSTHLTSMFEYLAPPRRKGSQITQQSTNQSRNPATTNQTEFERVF
# EPHA5, sequence (P54756 whole entry): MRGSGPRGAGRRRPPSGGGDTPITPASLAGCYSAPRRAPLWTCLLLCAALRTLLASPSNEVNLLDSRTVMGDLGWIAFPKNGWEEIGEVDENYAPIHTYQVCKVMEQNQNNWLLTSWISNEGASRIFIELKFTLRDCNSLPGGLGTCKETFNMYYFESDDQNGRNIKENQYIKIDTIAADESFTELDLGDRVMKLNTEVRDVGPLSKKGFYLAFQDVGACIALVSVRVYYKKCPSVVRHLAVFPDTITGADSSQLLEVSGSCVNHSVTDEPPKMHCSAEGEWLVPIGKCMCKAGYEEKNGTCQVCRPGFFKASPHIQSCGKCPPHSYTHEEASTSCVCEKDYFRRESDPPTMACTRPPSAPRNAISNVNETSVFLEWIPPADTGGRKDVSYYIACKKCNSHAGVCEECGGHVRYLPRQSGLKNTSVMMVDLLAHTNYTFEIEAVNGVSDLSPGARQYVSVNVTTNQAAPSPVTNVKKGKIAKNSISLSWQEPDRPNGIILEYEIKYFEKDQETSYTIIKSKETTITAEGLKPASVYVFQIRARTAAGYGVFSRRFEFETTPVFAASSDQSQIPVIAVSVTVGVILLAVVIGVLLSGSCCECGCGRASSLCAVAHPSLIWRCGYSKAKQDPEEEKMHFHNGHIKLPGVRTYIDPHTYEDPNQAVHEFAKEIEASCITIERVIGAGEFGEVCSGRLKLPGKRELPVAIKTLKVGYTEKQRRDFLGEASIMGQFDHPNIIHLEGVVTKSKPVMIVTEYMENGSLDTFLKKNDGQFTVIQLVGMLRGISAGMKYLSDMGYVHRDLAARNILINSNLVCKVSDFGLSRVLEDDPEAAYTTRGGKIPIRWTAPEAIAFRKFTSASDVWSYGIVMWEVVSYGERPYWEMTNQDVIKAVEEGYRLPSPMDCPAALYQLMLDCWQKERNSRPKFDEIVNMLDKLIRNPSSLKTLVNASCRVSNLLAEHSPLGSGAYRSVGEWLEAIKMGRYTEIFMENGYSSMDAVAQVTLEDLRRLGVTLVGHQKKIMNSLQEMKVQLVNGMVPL
# CSNK1A1, sequence (P48729 whole entry): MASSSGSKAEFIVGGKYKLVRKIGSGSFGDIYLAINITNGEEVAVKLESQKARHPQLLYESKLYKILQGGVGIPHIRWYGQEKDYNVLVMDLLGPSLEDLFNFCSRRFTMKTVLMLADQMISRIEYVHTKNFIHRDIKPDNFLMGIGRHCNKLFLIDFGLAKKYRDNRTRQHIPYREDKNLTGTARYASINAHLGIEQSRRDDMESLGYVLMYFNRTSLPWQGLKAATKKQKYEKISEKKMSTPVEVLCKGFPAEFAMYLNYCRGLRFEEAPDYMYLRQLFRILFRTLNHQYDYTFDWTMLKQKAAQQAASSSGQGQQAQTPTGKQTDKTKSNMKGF
smiles,measurement,setting,value
CC#CC(=O)N1CCC[C@H]1c1nc(-c2ccc(C(=O)Nc3ccccn3)cc2)c2c(N)nccn12 [Acalabrutinib],remaining binding at 0.3 µM,NEK5,96%
same,remaining binding at 0.3 µM,CDC2L2,82%
same,remaining binding at 0.3 µM,CSNK1A1,76%
same,remaining binding at 0.3 µM,CDK9,94%
same,remaining binding at 0.3 µM,PKN2,93%
same,remaining binding at 0.3 µM,EPHA6,93%
same,remaining binding at 0.3 µM,PYK2,89%
C=CC(=O)N1CCC[C@@H](n2nc(-c3ccc(Oc4ccccc4)cc3)c3c(N)ncnc32)C1 [Ibrutinib],remaining binding at 0.3 µM,MYO3B,80%
same,remaining binding at 0.3 µM,MARK3,99%
same,remaining binding at 0.3 µM,CAMK2A,82%
CC#CC(=O)N1CC[C@@H](n2c(=O)n(-c3ccc(Oc4ccccc4)cc3)c3c(N)ncnc32)C1 [Tirabrutinib],remaining binding at 0.3 µM,"EGFR(L747-T751del,Sins)",80%
same,remaining binding at 0.3 µM,MARK1,88%
C=CC(=O)N1CCC([C@@H]2CCNc3c(C(N)=O)c(-c4ccc(Oc5ccccc5)cc4)nn32)CC1 [Zanubrutinib],remaining binding at 0.3 µM,ZAP70,68%
same,remaining binding at 0.3 µM,MST1,90%
same,remaining binding at 0.3 µM,MYLK2,96%
same,remaining binding at 0.3 µM,TGFBR2,90%
same,remaining binding at 0.3 µM,[1],83%
same,remaining binding at 0.3 µM,SIK,100%
same,remaining binding at 0.3 µM,CASK,72%
same,remaining binding at 0.3 µM,SNARK,97%
same,remaining binding at 0.3 µM,EPHA5,97%
same,remaining binding at 0.3 µM,PLK2,100%
same,remaining binding at 0.3 µM,GRK1,100%
